Values quoted from earlier work in patent publication US11642308B2, “Ready to use liquid formulation” (priority 2020, dated 2023).

Conditions: ≈25° C. and ≈1 bar

## O=O [oxygen]
  solubility in water: about 40 mg/L
